Inhibition and IC50 data for six compounds are collected here from ChEMBL document CHEMBL1138140, “Inhibition of DNA helicases with DNA-competitive inhibitors” (Bioorg Med Chem Lett, 2006).

Holding throughout (assay type): functional
The target of assay [1] is T1, DNA helicase IV (Escherichia coli K-12) (UniProt P15038).
T1 sequence (whole entry): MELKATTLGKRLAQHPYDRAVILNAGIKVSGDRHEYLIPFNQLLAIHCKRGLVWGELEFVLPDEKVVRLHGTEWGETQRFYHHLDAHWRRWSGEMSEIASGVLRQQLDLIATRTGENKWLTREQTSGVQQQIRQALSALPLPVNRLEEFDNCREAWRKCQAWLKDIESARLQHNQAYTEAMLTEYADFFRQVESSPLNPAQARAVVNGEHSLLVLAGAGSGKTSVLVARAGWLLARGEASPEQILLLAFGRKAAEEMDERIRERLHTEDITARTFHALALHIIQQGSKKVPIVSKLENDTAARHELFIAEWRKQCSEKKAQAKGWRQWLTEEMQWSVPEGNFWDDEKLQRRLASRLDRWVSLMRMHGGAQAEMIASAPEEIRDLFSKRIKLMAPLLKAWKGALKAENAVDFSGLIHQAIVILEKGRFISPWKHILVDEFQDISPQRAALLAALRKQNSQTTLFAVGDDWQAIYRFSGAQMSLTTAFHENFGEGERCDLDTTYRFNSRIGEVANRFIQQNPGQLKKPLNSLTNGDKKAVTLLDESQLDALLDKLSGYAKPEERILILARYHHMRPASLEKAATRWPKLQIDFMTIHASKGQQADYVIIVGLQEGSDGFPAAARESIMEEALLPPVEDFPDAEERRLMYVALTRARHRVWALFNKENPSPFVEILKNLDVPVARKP
The assay is described as follows: Inhibition of helicase activity of Helicase4 from Escherichia coli at 10 uM.

Assay [2] deals with T2, DNA helicase IV (Escherichia coli K-12, UniProt P15038).
T2 sequence (P15038 whole entry): T1 sequence (whole entry)
Briefly: Inhibition of ATPase activity of Helicase4 from Escherichia coli in presence of ATP (5x Km(ATP)) and dT25 (5x KDNA).

The target in assay [3] is T1, DNA helicase IV (Escherichia coli K-12). The assay is described as follows: Inhibition of ATPase activity of Helicase4 from Escherichia coli at 10 uM.
Assay [4] has as its target DNA helicase IV (Escherichia coli K-12, UniProt P15038, Y473A). Briefly: Inhibition of ATPase activity of Tyr473Ala mutated Helicase4 in presence of ATP (5x Km(ATP)) and dT25 (5x KDNA).

DNA helicase IV (Escherichia coli K-12, UniProt P15038, Y473A), sequence (P15038 whole entry Y473A): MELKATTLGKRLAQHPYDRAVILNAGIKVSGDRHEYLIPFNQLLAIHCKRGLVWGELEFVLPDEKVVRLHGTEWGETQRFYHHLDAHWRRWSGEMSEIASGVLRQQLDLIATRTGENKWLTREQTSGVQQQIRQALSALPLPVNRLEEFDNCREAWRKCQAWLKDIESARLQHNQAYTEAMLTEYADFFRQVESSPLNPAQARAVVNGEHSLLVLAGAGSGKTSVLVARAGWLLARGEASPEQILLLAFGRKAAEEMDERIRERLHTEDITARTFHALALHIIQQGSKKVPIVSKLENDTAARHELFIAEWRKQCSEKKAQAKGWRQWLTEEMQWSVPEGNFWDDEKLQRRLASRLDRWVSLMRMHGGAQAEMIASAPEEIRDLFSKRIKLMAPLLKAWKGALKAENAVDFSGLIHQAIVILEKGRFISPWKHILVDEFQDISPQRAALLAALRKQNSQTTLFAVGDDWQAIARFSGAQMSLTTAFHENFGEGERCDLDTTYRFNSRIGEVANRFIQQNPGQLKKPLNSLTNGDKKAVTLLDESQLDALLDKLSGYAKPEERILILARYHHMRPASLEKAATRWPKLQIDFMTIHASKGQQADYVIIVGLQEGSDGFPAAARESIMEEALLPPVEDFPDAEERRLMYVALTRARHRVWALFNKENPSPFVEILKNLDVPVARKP

For `CC(=O)Nc1ccc2c(c1)C(=O)c1cc(CC(=O)O)ccc1SC2`, the inhibition – broadly, the change of the read-out against control, counted positive when it falls – in assay [1] came out at 89%; in assay [3] it was 99%. Besides, on DNA helicase IV [2], the IC50 (in general, the point on the concentration scale where inhibition reaches its midpoint) stood at 1.4 µM.

For the compound `O=C(O)Cc1ccc2c(c1)C(=O)c1ccccc1C[S+]2[O-]` (configuration not stated), the inhibition in assay [1] is 0%; in assay [3], 2%.

Turning to `O=C(O)Cc1ccc2c(c1)C(=O)c1ccccc1CS2`, the results for the inhibition in assay [1] and in assay [3] were 79% and 93%, respectively. The IC50 was found to be 5 µM on DNA helicase IV [2] and 5.5 µM on DNA helicase IV [4].

Regarding `Cc1ccc2c(c1)CSc1ccc(CC(=O)O)cc1C2=O`, the inhibition in assay [1] was 53%; in assay [3] it was 78%. In addition, the IC50 at DNA helicase IV [2] came to 7 µM.

Turning to `CCOC(=O)Cc1ccc2c(c1)C(=O)c1ccccc1CS2`, the inhibition in assay [1] was determined as 5%; in assay [3] it was 0%.

With `CC(C(=O)O)c1ccc2c(c1)C(=O)c1ccccc1CS2` (configuration not stated), the figures for the inhibition in assay [1] and in assay [3] were 93% and 98%, respectively. For the same compound, the IC50 at DNA helicase IV [2] amounted to 3 µM.
